Earlier results in patent US7629004B2, “Composition and process for removing and preventing mildew and fungal growth” (priority 2005, dated 2009).

Tested on: fungi
Conditions: fungal contamination of aircraft interior surfaces

CC(C)O [isopropyl alcohol]
Effectiveness of approved military cleaning procedure: ineffective
